In patent US11053204B2, “Pyrimidinyloxy benzene derivatives as herbicides” (FMC Corporation, priority 2015, dated 2021):

How the values were obtained:
Assay type in all cases: in vivo
[1] = system: morningglory (Ipomoea coccinea); test: Test C preemergence, plant response rating; conditions: Ipomoea, pre-emergence, Preemergence
Method in brief: (§1)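 Greenhouse plants rated visually against untreated controls 13–15 d after treatment, scale 0 = no effect to 100 = complete control. Postemergence sprays went onto potted plants 2–18 cm tall (1–4 leaves); preemergence sprays onto soil freshly sown in loam–sand or silt loam, chemicals formulated in non-phytotoxic solvent with surfactant.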

[2] = system: blackgrass (Alopecurus myosuroides); test: Test C preemergence, plant response rating; conditions: Alopecurus myosuroides, pre-emergence, Preemergence
Method in brief: as §1

[3] = system: waterhemp (common waterhemp, Amaranthus rudis); test: Test C preemergence, plant response rating; conditions: Amaranthus tuberculatus, pre-emergence, Preemergence
Method in brief: as §1

[4] = system: crabgrass, large (large crabgrass, Digitaria sanguinalis); test: Test C preemergence, plant response rating; conditions: Digitaria sanguinalis, pre-emergence, Preemergence
Method in brief: as §1

[5] = system: oilseed rape (Brassica napus); test: Test C preemergence, plant response rating; conditions: Brassica napus, pre-emergence, Preemergence
Method in brief: as §1

[6] = system: ryegrass, Italian (Italian ryegrass, Lolium multiflorum); test: Test C preemergence, plant response rating; conditions: Lolium multiflorum, pre-emergence, Preemergence
Method in brief: as §1

[7] = system: ragweed (common ragweed, Ambrosia elatior); test: Test C preemergence, plant response rating; conditions: Ambrosia artemisiifolia, pre-emergence, Preemergence
Method in brief: as §1

[8] = system: velvetleaf (Abutilon theophrasti); test: Test C preemergence, plant response rating; conditions: Abutilon theophrasti, pre-emergence, Preemergence
Method in brief: as §1

[9] = system: nutsedge, yellow (yellow nutsedge, Cyperus esculentus); test: Test C preemergence, plant response rating; conditions: Cyperus, pre-emergence, Preemergence
Method in brief: as §1

[10] = system: wheat (winter wheat, Triticum aestivum); test: Test C preemergence, plant response rating; conditions: Triticum aestivum, pre-emergence, Preemergence
Method in brief: as §1

[11] = system: lambsquarters (Chenopodium album); test: Test C preemergence, plant response rating; conditions: Chenopodium album, pre-emergence, Preemergence
Method in brief: as §1

soybean (Glycine max) = test: Test C preemergence, plant response rating; conditions: Glycine max, pre-emergence, Preemergence
Method in brief: as §1

[12] = system: foxtail, giant (giant foxtail, Setaria faberii); test: Test C preemergence, plant response rating; conditions: Setaria faberi, pre-emergence, Preemergence
Method in brief: as §1

corn (Zea mays) = test: Test C preemergence, plant response rating; conditions: Zea mays, pre-emergence, Preemergence
Method in brief: as §1

[13] = system: morningglory (Ipomoea coccinea); test: Test C postemergence, plant response rating; conditions: Ipomoea, post-emergence
Text: (§2) Seeds of plant species selected from blackgrass (Alopecurus myosuroides), ryegrass, Italian (Italian ryegrass, Lolium multiflorum), wheat (winter wheat, Triticum aestivum), galium (catchweed bedstraw, Galium aparine), corn (Zea mays), crabgrass, large (large crabgrass, Digitaria sanguinalis), foxtail, giant (giant foxtail, Setaria faberii), johnsongrass (Sorghum halepense), lambsquarters (Chenopodium album), morningglory (Ipomoea coccinea), nutsedge, yellow (yellow nutsedge, Cyperus esculentus), pigweed (Amaranthus retroflexus), ragweed (common ragweed, Ambrosia elatior), soybean (Glycine max), barnyardgrass (Echinochloa crus-galli), oilseed rape (Brassica napus), pigweed, palmer (palmer pigweed, Amaranthus palmeri), waterhemp (common waterhemp, Amaranthus rudis), velvetleaf (Abutilon theophrasti), kochia (Kochia scoparia), surinam grass (Brachiaria decumbens), nightshade (eastern black nightshade, Solanum ptycanthum), wild poinsettia (Euphorbia heterophylla), windgrass (Apera spica-venti), and oat, wild (wild oat Avena fatua), were planted into a blend of loam soil and sand or a silt loam soil and treated preemergence with test chemicals formulated in a non-phytotoxic solvent mixture which included a surfactant.
(§3) At the same time, plants selected from these crop and weed species and also chickweed (common chickweed, Stellaria media), buckwheat, wild (wild buckwheat, Polygonum convolvulus), wild mustard (Sinapis arvensis), field poppy (Papaver rhoeas), field violet (Viola arvensis), geranium, cutleaf (cutleaf geranium, Geranium dissectum), Canada thistle (Cirsium arvense), and speedwell (bird's-eye speedwell, Veronica persica), were planted in pots containing Sunshine Redi-Earth® planting medium comprising spaghnum peat moss, vermiculite, starter nutrients and dolomitic limestone and treated with postemergence applications of test chemicals formulated in the same manner. Plants ranged in height from 2 to 18 cm (1- to 4-leaf stage) for postemergence treatments. Treated plants and controls were maintained in a greenhouse for 13 to 15 d, after which time all species were compared to controls and visually evaluated. Plant response ratings, summarized in Table C, are based on a scale of 0 to 100 where 0 is no effect and 100 is complete control. A dash (-) response means no test result.

[14] = system: chickweed (common chickweed, Stellaria media); test: Test C postemergence, plant response rating; conditions: Stellaria media, post-emergence
Text: as §2, §3

[15] = system: foxtail, giant (giant foxtail, Setaria faberii); test: Test C postemergence, plant response rating; conditions: Setaria faberi, post-emergence
Text: as §2, §3

[16] = 62 g ai/ha, scale 0 to 100 (0 no effect, 100 complete control)
[17] = 125 g ai/ha, scale 0 to 100 (0 no effect, 100 complete control)

N#Cc1cccc(Oc2ncc(Cl)cn2)c1CCCCC(F)(F)F [Compound 73, 3-[(5-chloro-2-pyrimidinyl)oxy]-2-(5,5,5-trifluoropentyl)benzonitrile]
pest or weed control at 125 g/ha ([1]; 125 g ai/ha, scale of 0 to 100): 75% | pest or weed control at 16 g/ha ([1]; 16 g ai/ha, scale 0 to 100): 0% | pest or weed control at 31 g/ha ([1]; 31 g ai/ha, scale 0 to 100): 10% | pest or weed control at 62 g/ha ([1]; 62 g ai/ha, scale 0 to 100): 60% | pest or weed control at 62 g/ha ([2]; 62 g ai/ha, scale of 0 to 100): 100% | pest or weed control at 125 g/ha ([2]; 125 g ai/ha, scale of 0 to 100): 100% | pest or weed control at 16 g/ha ([2]; 16 g ai/ha, scale 0 to 100): 5% | pest or weed control at 31 g/ha ([2]; 31 g ai/ha, scale 0 to 100): 98% | pest or weed control at 125 g/ha ([3]; 125 g ai/ha, scale of 0 to 100): 100% | pest or weed control at 16 g/ha ([3]; 16 g ai/ha, scale 0 to 100): 65% | pest or weed control at 31 g/ha ([3]; 31 g ai/ha, scale 0 to 100): 100% | pest or weed control at 62 g/ha ([3]; 62 g ai/ha, scale 0 to 100): 100% | pest or weed control at 62 g/ha ([4]; 62 g ai/ha, scale of 0 to 100): 100% | pest or weed control at 125 g/ha ([4]; 125 g ai/ha, scale of 0 to 100): 100% | pest or weed control at 16 g/ha ([4]; 16 g ai/ha, scale 0 to 100): 98% | pest or weed control at 31 g/ha ([4]; 31 g ai/ha, scale 0 to 100): 100% | plant injury at 125 g/ha ([5]; 125 g ai/ha, scale of 0 to 100): 65% | plant injury at 16 g/ha ([5]; 16 g ai/ha, scale 0 to 100): 0% | plant injury at 31 g/ha ([5]; 31 g ai/ha, scale 0 to 100): 20% | plant injury at 62 g/ha ([5]; 62 g ai/ha, scale 0 to 100): 50% | pest or weed control at 125 g/ha ([6]; 125 g ai/ha, scale of 0 to 100): 100% | pest or weed control at 16 g/ha ([6]; 16 g ai/ha, scale 0 to 100): 30% | pest or weed control at 31 g/ha ([6]; 31 g ai/ha, scale 0 to 100): 35% | pest or weed control at 62 g/ha ([6]; 62 g ai/ha, scale 0 to 100): 85% | pest or weed control at 125 g/ha ([7]; 125 g ai/ha, scale of 0 to 100): 25% | pest or weed control at 16 g/ha ([7]; 16 g ai/ha, scale 0 to 100): 0% | pest or weed control at 31 g/ha ([7]; 31 g ai/ha, scale 0 to 100): 0% | pest or weed control at 62 g/ha ([7]; 62 g ai/ha, scale 0 to 100): 10% | pest or weed control at 125 g/ha ([8]; 125 g ai/ha, scale of 0 to 100): 95% | pest or weed control at 16 g/ha ([8]; 16 g ai/ha, scale 0 to 100): 0% | pest or weed control at 31 g/ha ([8]; 31 g ai/ha, scale 0 to 100): 30% | pest or weed control at 62 g/ha ([8]; 62 g ai/ha, scale 0 to 100): 75% | pest or weed control at 125 g/ha ([9]; 125 g ai/ha, scale of 0 to 100): 10% | pest or weed control at 16 g/ha ([9]; 16 g ai/ha, scale 0 to 100): 0% | pest or weed control at 31 g/ha ([9]; 31 g ai/ha, scale 0 to 100): 0% | pest or weed control at 62 g/ha ([9]; 62 g ai/ha, scale 0 to 100): 0% | plant injury at 125 g/ha ([10]; 125 g ai/ha, scale of 0 to 100): 70% | plant injury at 16 g/ha ([10]; 16 g ai/ha, scale 0 to 100): 0% | plant injury at 31 g/ha ([10]; 31 g ai/ha, scale 0 to 100): 0% | plant injury at 62 g/ha ([10]; 62 g ai/ha, scale 0 to 100): 30% | pest or weed control at 125 g/ha ([11]; 125 g ai/ha, scale of 0 to 100): 100% | pest or weed control at 16 g/ha ([11]; 16 g ai/ha, scale 0 to 100): 85% | pest or weed control at 31 g/ha ([11]; 31 g ai/ha, scale 0 to 100): 90% | pest or weed control at 62 g/ha ([11]; 62 g ai/ha, scale 0 to 100): 90% | plant injury at 125 g/ha (soybean (Glycine max); 125 g ai/ha, scale of 0 to 100): 40% | plant injury at 16 g/ha (soybean (Glycine max); 16 g ai/ha, scale 0 to 100): 0% | plant injury at 31 g/ha (soybean (Glycine max); 31 g ai/ha, scale 0 to 100): 0% | plant injury at 62 g/ha (soybean (Glycine max); 62 g ai/ha, scale 0 to 100): 25% | pest or weed control at 62 g/ha ([12]; 62 g ai/ha, scale of 0 to 100): 100% | pest or weed control at 125 g/ha ([12]; 125 g ai/ha, scale of 0 to 100): 100% | pest or weed control at 16 g/ha ([12]; 16 g ai/ha, scale 0 to 100): 98% | pest or weed control at 31 g/ha ([12]; 31 g ai/ha, scale 0 to 100): 100% | Corn plant response rating (crop injury, 0 = no effect, 100 = complete kill) at 62 g/ha (corn (Zea mays); 62 g ai/ha, scale of 0 to 100): 40% | Corn plant response rating (crop injury, 0 = no effect, 100 = complete kill) at 125 g/ha (corn (Zea mays); 125 g ai/ha, scale of 0 to 100): 50% | Corn plant response rating (crop injury, 0 = no effect, 100 = complete kill) at 16 g/ha (corn (Zea mays); 16 g ai/ha, scale 0 to 100): 0% | Corn plant response rating (crop injury, 0 = no effect, 100 = complete kill) at 31 g/ha (corn (Zea mays); 31 g ai/ha, scale 0 to 100): 20% | pest or weed control at 16 g/ha ([13]; 16 g ai/ha, scale 0 to 100): 70% | pest or weed control at 31 g/ha ([13]; 31 g ai/ha, scale 0 to 100): 75% | pest or weed control at 62 g/ha [13, 16]: 85% | pest or weed control at 125 g/ha [13, 17]: 75% | pest or weed control at 16 g/ha ([14]; 16 g ai/ha, scale 0 to 100): 80% | pest or weed control at 31 g/ha ([14]; 31 g ai/ha, scale 0 to 100): 80% | pest or weed control at 62 g/ha [14, 16]: 90% | pest or weed control at 125 g/ha [14, 17]: 85% | pest or weed control at 16 g/ha ([15]; 16 g ai/ha, scale 0 to 100): 15% | pest or weed control at 31 g/ha ([15]; 31 g ai/ha, scale 0 to 100): 25% | pest or weed control at 62 g/ha [15, 16]: 20% | pest or weed control at 125 g/ha [15, 17]: 25%
